Results on 22 molecules are retold here after patent US5081121A, “4(1H)-quinolone derivatives” (priority 1988, dated 1992).

Some results are limits rather than exact numbers.

Assay [1] deals with left atrial muscle. Briefly: Test Method 1: enhancement of contracting force of left atrial muscle extirpated from a guinea pig (electrically stimulated at 1 Hz). To be noted: Cavia porcellus, Krebs-Henseleit solution 32° C.; for EC20: read-out: EC20 (molar concentration for enhancing the left atrial muscle contracting force to the level of 20%); for EC50: read-out: EC50 (molar concentration for enhancing the left atrial muscle contracting force to the level of 50%); for EC100: read-out: EC100 (molar concentration for enhancing the left atrial muscle contracting force to the level of 100%). Format: cell-based. The protocol:
(§1) The drug according to the present invention was evaluated with reference to the physiological activities by means of a method using an atrial muscle extirpated from a guinea pig.
(§2) Male guinea pigs having a body weight of 300-500 g were made swooned by striking his head and were bleeded to death. The heart was extirpated and the right and left atrial muscles were cut off. The tops of each atrial muscle were fixed with cerrefines. The muscle was suspended into an organ-bath in which a Krebs-Henseleit solution (at 32° C.) was filled, and a 95% O2 -5% CO2 gas was flown through the bath. The left atrial muscle was stimulated electrically at a frequency of 1 Hz to stabilize the contracting force of the left atrial muscle. Then, the compounds according to the present invention represented by the general formulae were added to the organ-bath. As for the right atrial muscle, after the pulsation was stabilized, the compounds according to the present invention were added in the organ-bath in the same manner as described above.
(§3) The compounds according to the present invention represented by the aforementioned general formulae enhanced the left atrial muscle contracting force dependent on their concentrations. The drug concentrations for enhancing the left atrial muscle contracting force to the levels of 20%, 50% and 100%, respectively are listed in Table 2. EC20, EC50 and EC100 indicate the molar concentration for enhancing the left atrial muscle contracting force to the levels of 20%, 50% and 100%, respectively. The enhancing rates of the pulsation of the right atrial muscle are also listed within parentheses. The minus values in parentheses indicate that the pulsation of the right atrial muscle is decreased.
(§4) As a control drug, theophylline ([…].

Assay [2] deals with right atrial muscle. Nature of the assay: Test Method 1: enhancing rate of the pulsation of the right atrial muscle extirpated from a guinea pig. Format: cell-based. Particulars: minus values: pulsation is decreased. The protocol: as §1, §2, §3, §4

Take `CCOC(=O)c1cn(CC)c2ccc(C)cc2c1=O` [Compound 33, 3-ethoxycarbonyl-1-ethyl-6-methyl-4(1H)-quinolone]: in assay [1], the EC20 came to 30 µM, the EC50 was determined as 76.7 µM and the EC100 was found to be 513 µM. Moreover, in assay [2], the “enhancing rate of the pulsation of the right atrial muscle (in parentheses under EC20)” value (“enhancing rate … (in parentheses under EC20)” for short) stood at 1.5%, the “enhancing rate of the pulsation of the right atrial muscle (in parentheses under EC100)” value (“enhancing rate … (in parentheses under EC100)” below) is on record as -7.1% and the “enhancing rate of the pulsation of the right atrial muscle (in parentheses under EC50)” value (from here on “enhancing rate … (in parentheses under EC50)”) is listed as 1.7%.

Regarding `CCCCOc1cc2c(cc1OC)c(=O)cc(-c1ccco1)n2CC` [Compound 118, 7-n-butoxy-1-ethyl-2-(2-furyl)-6-methoxy-4(1H)-quinolone], in assay [1], the EC20 is 10 µM and the EC50 is 49 µM. Further, in assay [2], the “enhancing rate … (in parentheses under EC20)” value is listed as -5.0% and the “enhancing rate … (in parentheses under EC50)” value is -21.2%.

For `CCCCOc1cc2[nH]ccc(=O)c2cc1OC` [Compound 52, 7-n-butoxy-6-methoxy-4(1H)-quinolone], in assay [1], the EC20 was found to be 37.6 µM, the EC50 amounted to 115 µM and the EC100 was determined as 422 µM. In assay [2], the “enhancing rate … (in parentheses under EC20)” value is -1.0%, the “enhancing rate … (in parentheses under EC100)” value was -20.0% and the “enhancing rate … (in parentheses under EC50)” value is given as -1.2%.

For the molecule `COc1ccc2c(=O)cc[nH]c2c1O` [Compound 3, 8-hydroxy-7-methoxy-4(1H)-quinolone], in assay [1], the EC20 amounted to 708 µM and the EC50 worked out at 977 µM. In addition, in assay [2], the “enhancing rate … (in parentheses under EC20)” value came to 0.8% and the “enhancing rate … (in parentheses under EC50)” value is given as 2.0%.

For the molecule `COc1ccc(Cn2ccc(=O)c3cc(OC)c(OC)cc32)cc1` [Compound 17, 6,7-dimethoxy-1-(4-methoxybenzyl)-4(1H)-quinolone], in assay [1], the EC20 was determined as 4.47 µM and the EC50 worked out at 30 µM. Moreover, in assay [2], the “enhancing rate … (in parentheses under EC20)” value is reported as -2.1% and the “enhancing rate … (in parentheses under EC50)” value is -4.0%.

`COc1ccc2[nH]ccc(=O)c2c1OCc1ccccc1` [Compound 4, 5-benzyloxy-6-methoxy-4(1H)-quinolone]: the EC20 in assay [1] came out at 1000 µM. In assay [2], the “enhancing rate … (in parentheses under EC20)” value is given as 0.7%.

With `CCOc1cc2c(cc1OC)c(=O)c(C(=O)O)cn2C` [Compound 92, 3-carboxyl-7-ethoxy-6-methoxy-1-methyl-4(1H)-quinolone], in assay [1], the EC20 turned out to be 4.73 µM and the EC50 turned out to be 37.6 µM. In addition, in assay [2], the “enhancing rate … (in parentheses under EC20)” value is 1.0% and the “enhancing rate … (in parentheses under EC50)” value is 6.0%.

Regarding `CCOC(=O)c1cn(CC)c2c(C)c(C)ccc2c1=O` [Compound 81, 7,8-dimethyl-3-ethoxycarbonyl-1-ethyl-4(1H)-quinolone], in assay [1], the EC20 amounted to 35.5 µM and the EC50 came out at 57.5 µM. In assay [2], the “enhancing rate … (in parentheses under EC20)” value is listed as -10.5% and the “enhancing rate … (in parentheses under EC50)” value is reported as -15.0%.

Consider `COc1c(O)ccc2[nH]ccc(=O)c12` [Compound 2, 6-hydroxy-5-methoxy-4(1H)-quinolone], for which, in assay [1], the EC20 came out at 490 µM and the EC50 is 871 µM. Also, in assay [2], the “enhancing rate … (in parentheses under EC20)” value was 0.6% and the “enhancing rate … (in parentheses under EC50)” value is 2.2%.

`CCOC(=O)c1c[nH]c2c(C)cc(N(CC)CC)cc2c1=O` [Compound 84, 6-diethylamino-3-ethoxycarbonyl-8-methyl-4(1H)-quinolone]: in assay [1], the EC20 is 35.9 µM, the EC50 stood at 57.5 µM and the EC100 was 126 µM. Moreover, in assay [2], the “enhancing rate … (in parentheses under EC20)” value is recorded as -3.0%, the “enhancing rate … (in parentheses under EC100)” value is -11.5% and the “enhancing rate … (in parentheses under EC50)” value was -6.5%.

With `CCn1c(-c2cccs2)cc(=O)c2ccccc21` [Compound 97, 1-ethyl-2-(2-thienyl)-4(1H)-quinolone], in assay [1], the EC20 was determined as 4.52 µM and the EC50 was 50.7 µM. Also, in assay [2], the “enhancing rate … (in parentheses under EC20)” value is recorded as -1.0% and the “enhancing rate … (in parentheses under EC50)” value is given as -3.0%.

As for `CCOC(=O)c1c[nH]c2c(OC)ccc(-c3ccccc3)c2c1=O` [Compound 37, 3-ethoxycarbonyl-8-methoxy-5-phenyl-4(1H)-quinolone], in assay [1], the EC20 was 1.58 µM, the EC50 turned out to be 7.5 µM and the EC100 is 37.2 µM. For the same molecule, in assay [2], the “enhancing rate … (in parentheses under EC20)” value is -1.3%, the “enhancing rate … (in parentheses under EC100)” value is reported as -5.0% and the “enhancing rate … (in parentheses under EC50)” value is listed as -2.2%.

Regarding `CCOc1cc2c(cc1OC)c(=O)cc(-c1ccco1)n2CC` [Compound 101, 7-ethoxy-1-ethyl-2-(2-furyl)-6-methoxy-4(1H)-quinolone], in assay [1], the EC20 came out at 1.68 µM, the EC50 turned out to be 19.5 µM and the EC100 amounted to 89.1 µM. In addition, in assay [2], the “enhancing rate … (in parentheses under EC20)” value is listed as -1.0%, the “enhancing rate … (in parentheses under EC100)” value was found to be 0.0% and the “enhancing rate … (in parentheses under EC50)” value is given as -2.8%.

Take `COc1cccc2c(=O)c(C(=O)N3CCN(Cc4ccc5c(c4)OCO5)CC3)cn(C)c12` [Compound 107, 8-methoxy-1-methyl-3-{1-[4-(3,4-methylenedioxybenzyl)-piperazinyl]carbonyl}-4(1H)-quinolone]: in assay [1], the EC20 is 16.2 µM and the EC50 came to 100 µM. In addition, in assay [2], the “enhancing rate … (in parentheses under EC20)” value was -6.6% and the “enhancing rate … (in parentheses under EC50)” value is listed as -19.5%.

For the molecule `CCOC(=O)c1c[nH]c2c(OC)ccc(C)c2c1=O` [Compound 36, 3-ethoxycarbonyl-8-methoxy-5-methyl-4(1H)-quinolone], in assay [1], the EC20 was found to be 3.54 µM, the EC50 was 25.7 µM and the EC100 is 77.6 µM. Besides, in assay [2], the “enhancing rate … (in parentheses under EC20)” value came out at 0.0%, the “enhancing rate … (in parentheses under EC100)” value is 8.9% and the “enhancing rate … (in parentheses under EC50)” value is 3.6%.

Turning to `COc1cc2c(=O)ccn(C)c2cc1OC` [Compound 13, 6,7-dimethoxy-1-methyl-4(1H)-quinolone], in assay [1], the EC20 is 12.5 µM, the EC50 came out at 88.1 µM and the EC100 turned out to be 447 µM. In assay [2], the “enhancing rate … (in parentheses under EC20)” value is listed as 0.1%, the “enhancing rate … (in parentheses under EC100)” value was determined as 4.0% and the “enhancing rate … (in parentheses under EC50)” value was determined as 1.2%.

Turning to `CCOC(=O)c1cn(CC)c2c(OC)cc(S(C)(=O)=O)cc2c1=O` [Compound 40, 3-ethoxycarbonyl-1-ethyl-8-methoxy-6-methylsulfonyl-4(1H)-quinolone], in assay [1], the EC20 is 4.57 µM and the EC50 was 36.3 µM. Also, in assay [2], the “enhancing rate … (in parentheses under EC20)” value is reported as -4.5% and the “enhancing rate … (in parentheses under EC50)” value is reported as -16.0%.

For `C=CCn1c(C2CC2)cc(=O)c2cc(OC)c(OCC)cc21` [Compound 103, 1-allyl-2-cyclopropyl-7-ethoxy-6-methoxy-4(1H)-quinolone], in assay [1], the EC20 worked out at 3 µM, the EC50 worked out at 34.3 µM and the EC100 was determined as 162 µM. Further, in assay [2], the “enhancing rate … (in parentheses under EC20)” value is recorded as -2.0%, the “enhancing rate … (in parentheses under EC100)” value is listed as 1.2% and the “enhancing rate … (in parentheses under EC50)” value was determined as 0.5%.

Consider `CCn1ccc(=O)c2cc3c(cc21)OCO3` [Compound 60, 1-ethyl-6,7-methylenedioxy-4(1H)-quinolone], for which, in assay [1], the EC20 was < 100 µM and the EC50 was determined as 279 µM.

Consider `CCOC(=O)c1cn(CC)c2c(OC)cc(OCC)cc2c1=O` [Compound 77, 6-ethoxy-3-ethoxycarbonyl-1-ethyl-8-methoxy-4(1H)-quinolone], for which, in assay [1], the EC20 was 4.73 µM and the EC50 was determined as 50.1 µM.

In the case of `CCCCOc1cc2[nH]c(C3CC3)cc(=O)c2cc1OC` [Compound 115, 7-n-butoxy-2-cyclopropyl-6-methoxy-4(1H)-quinolone], in assay [1], the EC20 came out at 15.3 µM, the EC50 came out at 81.3 µM and the EC100 came to 202 µM.

For the molecule `COc1cc(SC)c2[nH]ccc(=O)c2c1` [Compound 30, 6-methoxy-8-methylsufenyl-4(1H)-quinolone], in assay [1], the EC20 came out at 6.92 µM, the EC50 was determined as 78.5 µM and the EC100 stood at 881 µM.
